Key:
Format in all cases: cell-based, S. aureus
RAT mutant [1] = test: Plating of antibiotic-treated cultures on agar plates without antibiotic selection (kill)
Experimental: (§1) RAT plays a role in regulating autolytic activity of S. aureus. […] To evaluate whether the cell lysis of the RAT mutant was additive to the effect of a subinhibitory concentration of penicillin, 200 ng/ml of penicillin was added to a growing culture of the RAT mutant at an OD650 nm of 0.5, corresponding to the mid-log phase. […] This finding is consistent with the additive effect of penicillin upon the lytic propensity of the RAT mutant late in the growth cycle. […] In comparison to the parental strain without antibiotics, the RAT mutant with subinhibitory concentrations of penicillin has a 3–4 log kill.

wild-type strain = test: Subinhibitory antibiotic added to growing culture at mid-log phase, optical density followed; conditions: 200 ng/ml penicillin (subinhibitory) added at OD650 nm of 0.5, mid-log phase, FIG. 1
RAT mutant [2] = test: as above; conditions: 200 ng/ml penicillin (subinhibitory) added at OD650 nm of 0.5, mid-log phase, FIG. 1
Experimental: as §1

Substance: penicillin
- more kill of RAT mutant than the parental strain (RAT mutant [1]; cultures with subinhibitory antibiotic plated on agar without antibiotic selection, compared with parental strain): 1–2 log
- kill of RAT mutant in comparison to the parental strain without antibiotics (RAT mutant [1]; subinhibitory concentrations of penicillin, compared with parental strain without antibiotics): 3–4 log
- change in optical density (growth) after addition of antibiotic (wild-type strain): no increase in optical density
- change in optical density (cell lysis) after addition of antibiotic (RAT mutant [2]): further reduction in optical density

From US7148328B2, “Compositions and methods for regulating autolytic processes in bacteria” (Trustees of Dartmouth College, priority 2001, dated 2006)
